Reference: ChEMBL document CHEMBL1158583, “3-(2-Aminocarbonylphenyl)propanoic acid analogs as potent and selective EP3 receptor antagonists. Part 3: Synthesis, metabolic stability, and biological evaluation of optically active analogs” (Bioorg Med Chem, 2010)

Columns and labels:
[1] = (§1) AUC in rat at 10 mg/kg, po; type: ADME, organism-based, Plasma; set-up: dose 10 mg/kg, route oral; details: plasma
[2] = Volume of distribution at steady state in rat at 2 mg/kg, iv; type: ADME, organism-based; set-up: dose 2 mg/kg, route intravenous; details: in vivo, read-out: Vdss
[3] = (§2) AUC in rat at 2 mg/kg, iv; type: ADME, organism-based, Plasma; set-up: dose 2 mg/kg, route intravenous; details: plasma
[4] = (§3) Oral bioavailability in rat at 10 mg/kg; type: ADME, organism-based; details: in vivo
[5] = Cmax in rat at 10 mg/kg, po; type: ADME, organism-based; set-up: dose 10 mg/kg, route oral; details: in vivo
[6] = (§4) AUC in rat at […], iv; type: ADME, organism-based; set-up: dose 1.8 mg/kg, route intravenous; details: plasma
[7] = (§5) Volume of distribution at steady state in rat at […], iv; type: ADME, organism-based; set-up: dose 1.8 mg/kg, route intravenous; details: in vivo, read-out: Vdss
Rattus norvegicus [8] = assay: as §1; type: ADME, organism-based, Plasma; set-up: dose 10 mg/kg, route oral; details: in vivo
Rattus norvegicus [9] = assay: as §2; type: ADME, organism-based, Plasma; set-up: dose 2 mg/kg, route intravenous; details: in vivo
Rattus norvegicus [10] = assay: as §3; type: ADME, organism-based; details: in vivo
[11] = as §5; type: ADME, organism-based; set-up: dose 1.2 mg/kg, route intravenous; details: in vivo, read-out: Vdss
[12] = as §4; type: ADME, organism-based; set-up: dose 1.2 mg/kg, route intravenous; details: plasma
[13] = as §4; type: ADME, organism-based; set-up: dose 2.7 mg/kg, route intravenous; details: plasma
[14] = as §5; type: ADME, organism-based; set-up: dose 2.7 mg/kg, route intravenous; details: in vivo, read-out: Vdss

Row | Structure (SMILES) | AUC [1] [ng·h/mL] | Vd [2] [L/kg] | bioavailability [4] [%] | Cmax [5] [ng/mL] | also measured
1 | Cc1cc(C)cc(Oc2ccc(CCC(=O)O)c(C(=O)N[C@H](CC(C)C)c3cc(C)cc(C)c3)c2)c1 | 1430 | 0.56 | 21 | 950 | AUC [3]: 1370 ng·h/mL
2 | Cc1cc(C)cc(Nc2ccc(CCC(=O)O)c(C(=O)N[C@H](CC(C)C)c3cc(C)cc(C)c3)c2)c1 | – | 1.03 | – | 1370 | AUC (Rattus norvegicus [8]): 3.27 µg·h/mL; AUC (Rattus norvegicus [9]): 2.67 µg·h/mL; bioavailability (Rattus norvegicus [10]): 25%
3 | Cc1cc(C)cc([C@@H](CC(C)C)NC(=O)c2cc(COc3cc(F)ccc3F)ccc2CCC(=O)O)c1 | – | – | 18 | 190 | Vd [11]: 0.39 L/kg; AUC [12]: 681 ng·h/mL

Second part, led by results:

Row | AUC [1] [ng·h/mL] | Vd [2] [L/kg] | bioavailability [4] [%] | Cmax [5] [ng/mL] | Structure (SMILES) | also measured
4 | 4100 | – | 54 | 1350 | Cc1cc(C)cc([C@@H](CC(C)C)NC(=O)c2cc(COc3cc(C)ccc3C)ccc2CCC(=O)O)c1 | AUC [6]: 1370 ng·h/mL; Vd [7]: 0.67 L/kg
5 | 1010 | – | – | – | Cc1cc(C)cc([C@@H](CC(C)C)NC(=O)c2cc(COc3ccccc3C)ccc2CCC(=O)O)c1 | AUC [13]: 890 ng·h/mL; Vd [14]: 1.24 L/kg
